Source: paper PMC9000887, “Novel 1,2,3-Triazole-Coumarin Hybrid Glycosides and Their Tetrazolyl Analogues: Design, Anticancer Evaluation and Molecular Docking Targeting EGFR, VEGFR-2 and CDK-2” (Molecules, 2022)

How the values were obtained:
[1] = system: human melanoma (Mel-501) cancer cell line; test: MTT cytotoxicity assay, Mel-501; settings: Homo sapiens; for inhibition at 100 µM: read-out: % Inhibition Mel-501; for IC50: read-out: IC50 (Mean ± SEM) Mel-501
Protocol: (§1) After 48 h incubation, the medium was aspirated and then 40 μL MTT salt (2.5 mg/mL) was added for a further 4 h. […] Doxorubicin was used as the positive control and 0.5% DMSO was used as the negative control.

[2] = system: human prostate (PC-3) cancer cell line; test: MTT cytotoxicity assay, PC-3; settings: Homo sapiens; for inhibition at 100 µM: read-out: % Inhibition PC-3; for IC50: read-out: IC50 (Mean ± SEM) PC-3
Protocol: as §1

[3] = system: human pancreatic (Paca-2) cancer cell line; test: MTT cytotoxicity assay, Paca-2; settings: Homo sapiens; for inhibition at 100 µM: PaCa-2, read-out: % Inhibition Paca-2; for IC50: PaCa-2, read-out: IC50 (Mean ± SEM) Paca-2
Protocol: as §1

[4] = system: human colon (Caco-2) cancer cell line; test: MTT cytotoxicity assay, Caco-2; settings: for % Inhibition Caco-2: Caco-2, at 100 µM, MTT, (-) No activity detected; for IC50: read-out: IC50 (Mean ± SEM) Caco-2, Caco-2, MTT, three independent determinations
Protocol: as §1

[5] = system: human melanoma (A-375) cancer cell line; test: MTT cytotoxicity assay, A-375; settings: Homo sapiens; for inhibition at 100 µM: A-375, read-out: % Inhibition A-375; for IC50: A-375, read-out: IC50 (Mean ± SEM) A-375
Protocol: as §1

CDK-2/cyclin A2 = CDK-2/cyclin A2 (Homo sapiens, UniProt P24941); test: In vitro kinase inhibitory assessment, CDK-2/cyclin A2 (ELISA); type: biochemical; settings: mean of three values; read-out: IC50 (Mean ± SEM) CDK-2/Cyclin A2
Protocol: Assay of CDK-2/cyclin A2 was achieved through ELISA using an affinity tag labelled capture antibody. Adding the samples and the standard to the wells was carried out after the addition of the antibody mix. After the incubation period, the unrestrained substance was discarded and the wells were washed. The added TMB (3,3′,5,5′-tetramethylbenzidine) substrate was prompted by Horseradish peroxidase (HRP) and blue coloration appeared. This reaction was stopped with the addition of stop solution to complete the change in colour from blue to yellow. The created signals were equivalent to the quantity of bound analyte and Robonik P2000 ELISA reader was used to record the intensity at a certain wavelength (450 nm). The concentrations of the screened compounds were calculated through the plotted curve.

VEGFR-2 = VEGFR-2 (Homo sapiens, UniProt P35968); test: biochemical
Protocol: The cells were harvested, and the homogenates were prepared in saline using a tight pestle homogenizer until complete cell disruption. The kit used a double-antibody sandwich enzyme-linked immunosorbent assay (ELISA) to determine the level of human VEGFR-2 in samples. A monoclonal antibody for VEGFR-2 was pre-coated onto 96-well plates. The test samples were added to the wells and a biotinylated detection polyclonal antibody from goat specific for VEGFR-2 was added, subsequently followed by washing with PBS buffer. Avidin–Biotin–Peroxidase complex was added, and the unbound conjugates were washed away with PBS buffer. HRP substrate TMB was used to visualize HRP enzymatic reaction. TMB was catalysed by HRP to produce a blue colour product that changed into yellow after the addition of acidic stop solution. The density of yellow colour is proportional to the human VEGFR-2 amount of the sample captured in the plate. The chroma of colour and the concentration of the human VEGFR-2 of the samples were positively correlated and the optical density was determined at 450 nm. The level of human VEGFR-2 in samples was calculated (pg/mL) as duplicate determinations from the standard curve. The % inhibition was calculated in comparison to control untreated cells.

EGFR = EGFR (Homo sapiens, UniProt P00533); test: In vitro kinase inhibitory assessment, EGFR (Kinase-Glo luminescence); type: biochemical; settings: mean of three values; read-out: IC50 (Mean ± SEM) EGFR
Sequence of EGFR (P00533 25-1210): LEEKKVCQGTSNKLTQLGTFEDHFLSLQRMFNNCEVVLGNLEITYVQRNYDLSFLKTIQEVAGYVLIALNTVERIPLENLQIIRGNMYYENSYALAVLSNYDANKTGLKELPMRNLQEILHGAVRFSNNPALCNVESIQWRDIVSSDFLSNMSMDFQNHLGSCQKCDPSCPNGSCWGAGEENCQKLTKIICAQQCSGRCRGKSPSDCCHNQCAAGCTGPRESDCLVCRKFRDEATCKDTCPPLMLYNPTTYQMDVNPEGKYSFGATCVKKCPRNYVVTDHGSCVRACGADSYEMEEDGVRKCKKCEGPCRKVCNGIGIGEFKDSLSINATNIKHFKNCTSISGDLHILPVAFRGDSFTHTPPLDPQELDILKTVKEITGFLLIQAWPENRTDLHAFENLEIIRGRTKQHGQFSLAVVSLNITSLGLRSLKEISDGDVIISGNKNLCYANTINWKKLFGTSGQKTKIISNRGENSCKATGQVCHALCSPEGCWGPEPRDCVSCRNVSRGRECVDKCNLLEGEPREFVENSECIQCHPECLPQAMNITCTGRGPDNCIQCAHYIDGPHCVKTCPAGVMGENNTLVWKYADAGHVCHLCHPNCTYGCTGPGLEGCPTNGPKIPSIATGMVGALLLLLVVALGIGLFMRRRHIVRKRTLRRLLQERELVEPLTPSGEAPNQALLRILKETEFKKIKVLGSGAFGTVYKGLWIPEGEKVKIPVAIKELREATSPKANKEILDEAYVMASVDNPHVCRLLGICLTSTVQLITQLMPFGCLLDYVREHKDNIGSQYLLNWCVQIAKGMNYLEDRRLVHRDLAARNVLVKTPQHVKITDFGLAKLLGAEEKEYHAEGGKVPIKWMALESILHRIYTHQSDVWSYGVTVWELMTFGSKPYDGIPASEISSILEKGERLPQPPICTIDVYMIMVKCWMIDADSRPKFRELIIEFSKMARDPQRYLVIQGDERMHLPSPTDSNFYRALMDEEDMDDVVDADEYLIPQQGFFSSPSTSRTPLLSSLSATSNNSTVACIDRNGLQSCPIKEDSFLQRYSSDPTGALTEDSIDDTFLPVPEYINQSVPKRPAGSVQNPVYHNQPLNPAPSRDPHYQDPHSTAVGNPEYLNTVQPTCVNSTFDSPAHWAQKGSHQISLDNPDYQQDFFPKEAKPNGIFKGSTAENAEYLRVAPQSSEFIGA

Sequence of VEGFR-2 (P35968 20-1356): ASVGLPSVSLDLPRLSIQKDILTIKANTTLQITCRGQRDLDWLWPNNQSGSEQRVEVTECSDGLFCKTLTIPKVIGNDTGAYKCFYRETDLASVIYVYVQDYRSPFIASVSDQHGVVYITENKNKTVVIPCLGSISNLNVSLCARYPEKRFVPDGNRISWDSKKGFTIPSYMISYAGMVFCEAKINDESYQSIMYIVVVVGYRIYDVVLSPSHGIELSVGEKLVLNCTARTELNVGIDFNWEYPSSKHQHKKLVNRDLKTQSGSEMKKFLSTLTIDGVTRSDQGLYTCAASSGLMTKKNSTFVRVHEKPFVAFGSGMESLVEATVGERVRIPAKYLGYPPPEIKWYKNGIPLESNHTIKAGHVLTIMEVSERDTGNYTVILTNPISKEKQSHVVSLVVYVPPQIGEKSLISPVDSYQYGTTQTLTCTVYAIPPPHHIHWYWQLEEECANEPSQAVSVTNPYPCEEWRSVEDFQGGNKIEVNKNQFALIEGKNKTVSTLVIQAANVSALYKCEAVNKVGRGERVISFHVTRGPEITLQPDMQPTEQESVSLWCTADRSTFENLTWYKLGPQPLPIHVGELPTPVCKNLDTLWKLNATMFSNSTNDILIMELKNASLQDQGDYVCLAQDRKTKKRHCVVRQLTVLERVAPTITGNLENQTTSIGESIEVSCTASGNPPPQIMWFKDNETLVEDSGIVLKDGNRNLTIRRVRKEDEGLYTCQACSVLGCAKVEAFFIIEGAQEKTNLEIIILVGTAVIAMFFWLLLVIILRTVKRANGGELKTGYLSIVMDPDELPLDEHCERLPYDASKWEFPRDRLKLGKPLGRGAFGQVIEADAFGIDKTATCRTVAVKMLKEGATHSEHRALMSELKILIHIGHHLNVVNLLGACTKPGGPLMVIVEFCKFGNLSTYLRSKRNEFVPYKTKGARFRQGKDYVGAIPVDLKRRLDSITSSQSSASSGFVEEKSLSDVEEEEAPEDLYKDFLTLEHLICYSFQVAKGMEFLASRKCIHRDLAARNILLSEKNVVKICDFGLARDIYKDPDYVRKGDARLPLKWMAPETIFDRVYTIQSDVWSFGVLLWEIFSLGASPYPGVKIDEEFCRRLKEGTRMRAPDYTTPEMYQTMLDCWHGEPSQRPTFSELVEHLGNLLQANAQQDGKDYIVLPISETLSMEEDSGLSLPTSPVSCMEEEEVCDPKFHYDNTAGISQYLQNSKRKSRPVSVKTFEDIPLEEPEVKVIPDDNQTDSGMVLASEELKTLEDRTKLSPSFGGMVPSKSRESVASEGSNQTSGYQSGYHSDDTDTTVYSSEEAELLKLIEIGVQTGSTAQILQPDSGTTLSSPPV

Compound | inhibition at 100 µM [1] [%] | IC50 [1] [µM] | inhibition at 100 µM [2] [%] | IC50 [2] [µM] | inhibition at 100 µM [3] [%] | IC50 [3] [µM] | melting point [°C] | % Inhibition Caco-2 [4] [%] | IC50 [4] [µM] | inhibition at 100 µM [5] [%] | IC50 [5] [µM] | IC50 (CDK-2/cyclin A2) [µM] | IC50 (VEGFR-2) [µM] | IC50 (EGFR) [µM]
O=c1cc(-c2ccccc2)c2ccc(OCc3cn([C@@H]4OC[C@@H](O)[C@H](O)[C@H]4O)nn3)cc2o1 [Compound 18, 4-Phenyl-7-((1-(β-D-Xylopyranosyl)-1H-1,2,3-triazol-4-yl)methoxy)-2H-chromen-2-one] | 98.5 | 10 ± 0.1 | 91.4 | 37.6 ± 0.4 | 96.9 | 36.4 ± 1.2 | 177 to 178 | 99.4 | 61.9 ± 1.3 | 97.9 | 8.5 ± 0.3 |  |  | 
O=c1cc(-c2ccccc2)c2ccc(OCc3cn([C@@H]4O[C@H](CO)[C@H](O)[C@H](O)[C@H]4O)nn3)cc2o1 [Compound 17, 4-Phenyl-7-((1-(β-D-galactopyranosyl)-1H-1,2,3-triazol-4-yl)methoxy)-2H-chromen-2-one] | 98.6 | 35.8 ± 0.7 | 97.3 | 41 ± 2.1 | 96.3 | 33.3 ± 0.5 | 185 to 186 | 95.6 | 48.1 ± 0.8 | 98.5 | 39.6 ± 0.5 |  |  | 
N#CCOc1ccc2c(-c3ccccc3)cc(=O)oc2c1 [Compound 2, 2-((2-Oxo-4-phenyl-2H-chromen-7-yl)oxy)acetonitrile] | 35.6 |  | 10.5 |  | 44.1 |  | 183 to 184 |  |  | 6.5 |  |  |  | 
CC(=O)OC[C@H]1O[C@@H](n2cc(COc3ccc4c(-c5ccccc5)cc(=O)oc4c3)nn2)[C@H](OC(C)=O)[C@@H](OC(C)=O)[C@@H]1OC(C)=O [Compound 13, 4-Phenyl-7-((1-(2,3,4,6-Tetra-O-acetyl-β-D-glucopyranosyl)-1H-1,2,3-triazol-4-yl)methoxy)-2H-chromen-2-one] | 98.5 | 16.7 ± 0.3 | 95.6 | 22.3 ± 0.6 | 97.6 | 14.6 ± 1.1 | 131 to 132 | 99.6 | 40.5 ± 0.9 | 96.9 | 14.5 ± 0.2 | 0.5 ± 0.11 | 45 ± 0.1 | 66 ± 0.01
O=c1cc(-c2ccccc2)c2ccc(O)cc2o1 [Compound 1, 7-hydroxy-4-phenyl-2H-chromen-2-one] | 96.2 | 28.6 ± 0.4 | 55.7 |  | 79 | 62.3 ± 1.3 |  | 40.5 |  | 95 | 12.9 ± 0.6 |  |  | 
CC(=O)OC[C@H]1O[C@@H](n2cc(COc3ccc4c(-c5ccccc5)cc(=O)oc4c3)nn2)[C@H](OC(C)=O)[C@@H](OC(C)=O)[C@H]1OC(C)=O [Compound 14, 4-Phenyl-7-((1-(2,3,4,6-tetra-O-acetyl-β-D-galactopyranosyl)-1H-1,2,3-triazol-4-yl)methoxy)-2H-chromen-2-one] | 77.1 | 65.1 ± 1.2 | 80.2 | 51.3 ± 1.6 | 94.9 | 33.4 ± 0.6 | 93 to 94 | 89.8 | 70.2 ± 1.4 | 96.8 | 12.4 ± 0.3 |  |  | 
CC(=O)OC1COC(n2cc(COc3ccc4c(-c5ccccc5)cc(=O)oc4c3)nn2)C(OC(C)=O)C1OC(C)=O [Compound 15, 4-Phenyl-7-((1-(2,3,4-tria-O-acetyl-β-D-xylopyranosyl)-1H-1,2,3-triazol-4-yl)methoxy)-2H-chromen-2-one] | 97.8 | 4.1 ± 0.3 | 98.2 | 12.5 ± 0.9 | 95 | 16.9 ± 0.9 | 89 to 90 | 99.3 | 20.4 ± 0.6 | 94.7 | 9.9 ± 1 | 0.48 ± 0.15 | 40 ± 0.05 | 53 ± 0.15
O=c1cc(-c2ccccc2)c2ccc(OCc3nnn([C@@H]4O[C@H](CO)[C@H](O)[C@H](O)[C@H]4O)n3)cc2o1 [Compound 7] | 22.3 |  | 0 |  | 21.3 |  | 204 to 205 |  |  | 13.8 |  |  |  | 
COc1cccc2c1C(=O)c1c(O)c3c(c(O)c1C2=O)C[C@@](O)(C(=O)CO)C[C@@H]3O[C@H]1C[C@H](N)[C@H](O)[C@H](C)O1 [Doxorubicin, reference compound] |  | 3.5 ± 0.3 |  | 6.8 ± 0.2 |  | 19.4 ± 0.5 |  |  | 3.7 ± 0.2 |  | 4.5 ± 0.07 |  |  | 
C#CCOc1ccc2c(-c3ccccc3)cc(=O)oc2c1 [Compound 11, 4-Phenyl-7-(prop-2-yn-1-yloxy)-2H-chromen-2-one] | 44 |  | 16.7 |  | 58.1 |  | 116 to 117 | 0 |  | 9.1 |  |  |  | 
O=c1cc(-c2ccccc2)c2ccc(OCc3nn[nH]n3)cc2o1 [Compound 3, 7-((2H-Tetrazol-5-yl)methoxy)-4-phenyl-2H-chromen-2-one] | 48.4 |  | 12.2 |  | 55.6 |  | 219 to 221 |  |  | 55.3 |  |  |  | 
O=c1cc(-c2ccccc2)c2ccc(OCc3nnn(CCOCCO)n3)cc2o1 [Compound 9, 7-((2-(2-(2-Hydroxyethoxy)ethyl)-2H-tetrazol-5-yl)methoxy)-4-phenyl-2H-chromen-2-one] | 97.7 | 30.2 ± 0.5 | 95.9 | 47.4 ± 1.4 | 94.7 | 28.3 ± 0.7 |  | 99.5 | 38.1 ± 0.4 | 84.1 | 15 ± 0.04 |  |  | 
O=c1cc(-c2ccccc2)c2ccc(OCc3cn([C@@H]4O[C@H](CO)[C@@H](O)[C@H](O)[C@H]4O)nn3)cc2o1 [Compound 16, 4-Phenyl-7-((1-(β-D-glucopyranosyl)-1H-1,2,3-triazol-4-yl)methoxy)-2H-chromen-2-one] | 99.1 | 26.5 ± 0.7 | 95.8 | 36.4 ± 1.1 | 96.9 | 23.8 ± 1.1 | 180 to 182 | 99 | 48.1 ± 0.4 | 97.5 | 16.3 ± 0.6 |  |  | 
CC(=O)OC[C@H]1O[C@@H](n2nnc(COc3ccc4c(-c5ccccc5)cc(=O)oc4c3)n2)[C@H](OC(C)=O)[C@@H](OC(C)=O)[C@H]1OC(C)=O [Compound 5, 4-Phenyl-7-((1-(2,3,4,6-tetra-O-actyl-β-D-galactopyranosyl)-2H-tetrazol-5-yl)methoxy)-2H-chromen-2-one] | 68.4 | 72.1 ± 1.2 | 15 |  | 56.9 |  | 122 to 124 |  |  | 23.1 |  |  |  | 
O=c1cc(-c2ccccc2)c2ccc(OCc3nnn([C@@H]4OC[C@@H](O)[C@H](O)[C@H]4O)n3)cc2o1 [Compound 8] | 98.1 | 19.4 ± 0.4 | 98.1 | 48.2 ± 0.7 | 96.5 | 23.8 ± 0.9 | 195 to 196 | 97 | 52.5 ± 1.3 | 95 | 13.9 ± 0.2 |  |  | 
